Where “and” joins values, the source holds several entries; their conditions need not be identical. Identical values can stand only once. Inconclusive results and toxic doses are left out. No stated cut-off is given here; in the data, active means T/C of 150% or more; inactive means T/C below 125%.
Tested on: L1210 leukemia ip in BDF1 mice, survival T/C
Experiment: NCI In Vivo Anticancer Drug Screen. Data for tumor model L1210 Leukemia (intraperitoneal) in B6D2F1 (BDF1) mice
Details: endpoint: mean survival time, higher = longer survival
Summary of the method: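 Transplantable tumor model; survival measured in treated vs vehicle control mice. Value = treated/control.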

[1] = dose: 100.0 mg/kg/injection, schedule: Q01DX001 (ip), vehicle: saline
[2] = dose: 200.0 mg/kg/injection, schedule: Q01DX001 (ip), vehicle: saline
[3] = dose: 400.0 mg/kg/injection, schedule: Q01DX001 (ip), vehicle: saline
[4] = dose: 100.0 mg/kg/injection, schedule: Q01DX001 (ip), vehicle: carboxymethylcellulose (CMC)
[5] = dose: 200.0 mg/kg/injection, schedule: Q01DX001 (ip), vehicle: carboxymethylcellulose (CMC)

Measured: T/C

Cc1c(-c2ccccc2)sc(N)c1C#N
inactive: dose: 100.0 mg/kg/injection, schedule: Q01DX001 (ip), vehicle: saline with Tween-80 94 % of control | dose: 100.0 mg/kg/injection, schedule: Q01DX009 (ip), vehicle: saline with Tween-80 93 % of control and 100 % of control | dose: 100.0 mg/kg/injection, schedule: Q04DX002 (ip), vehicle: saline with Tween-80 94 % of control | dose: 100.0 mg/kg/injection, schedule: Q04DX003 (ip), vehicle: saline with Tween-80 95 % of control | dose: 200.0 mg/kg/injection, schedule: Q01DX001 (ip), vehicle: saline with Tween-80 93 % of control | dose: 200.0 mg/kg/injection, schedule: Q01DX009 (ip), vehicle: saline with Tween-80 92 % of control | dose: 200.0 mg/kg/injection, schedule: Q04DX002 (ip), vehicle: saline with Tween-80 94 % of control and 98 % of control | dose: 200.0 mg/kg/injection, schedule: Q04DX003 (ip), vehicle: saline with Tween-80 100 % of control | dose: 400.0 mg/kg/injection, schedule: Q01DX001 (ip), vehicle: saline with Tween-80 93 % of control | dose: 400.0 mg/kg/injection, schedule: Q01DX009 (ip), vehicle: saline with Tween-80 100 % of control and 87 % of control | dose: 400.0 mg/kg/injection, schedule: Q04DX002 (ip), vehicle: saline with Tween-80 96 % of control | dose: 400.0 mg/kg/injection, schedule: Q04DX003 (ip), vehicle: saline with Tween-80 100 % of control

O=C(Nc1ncc([N+](=O)[O-])s1)c1cccc([N+](=O)[O-])c1
inactive: dose: 6.25 mg/kg/injection, schedule: Q01DX009 (ip), vehicle: Klucel (hydroxypropylcellulose) (HPC) 92 % of control | dose: 6.25 mg/kg/injection, schedule: Q04DX003 (ip), vehicle: Klucel (hydroxypropylcellulose) (HPC) 105 % of control | dose: 12.5 mg/kg/injection, schedule: Q01DX009 (ip), vehicle: Klucel (hydroxypropylcellulose) (HPC) 100 % of control | dose: 12.5 mg/kg/injection, schedule: Q04DX003 (ip), vehicle: Klucel (hydroxypropylcellulose) (HPC) 102 % of control | dose: 25.0 mg/kg/injection, schedule: Q01DX009 (ip), vehicle: Klucel (hydroxypropylcellulose) (HPC) 89 % of control | dose: 25.0 mg/kg/injection, schedule: Q04DX003 (ip), vehicle: Klucel (hydroxypropylcellulose) (HPC) 102 % of control

Nc1ncnc2c1ncn2C1OC(C(=O)O)C(O)C1O (stereo not given)
inactive: dose: 100.0 mg/kg/injection, schedule: Q01DX005 (ip), vehicle: saline 107 % of control | dose: 200.0 mg/kg/injection, schedule: Q01DX005 (ip), vehicle: saline 101 % of control

CCN1C(=O)CSC1=S
inactive: [1] 101 % of control | dose: 100.0 mg/kg/injection, schedule: Q04DX003 (ip), vehicle: other 92 % of control and 96 % of control | [2] 101 % of control | dose: 200.0 mg/kg/injection, schedule: Q04DX003 (ip), vehicle: other 110 % of control and 89 % of control | [3] 102 % of control | dose: 400.0 mg/kg/injection, schedule: Q04DX003 (ip), vehicle: other 96 % of control

CC1CCCC1C(=Nc1ccc(Cl)c(Cl)c1)N1CCCCC1 (stereo not given)
inactive: [1] 105 % of control | [2] 100 % of control | [3] 102 % of control

COc1ccc(CN(C)C)c(C(O)c2ccccc2)c1 (stereo not given)
inactive: dose: 50.0 mg/kg/injection, schedule: Q01DX001 (ip), vehicle: carboxymethylcellulose (CMC) 101 % of control | [4] 103 % of control | [5] 103 % of control

O=C(COc1ccc([N+](=O)[O-])cc1)OCCN1CCOCC1
inactive: [4] 92 % of control | [5] 111 % of control | dose: 400.0 mg/kg/injection, schedule: Q01DX001 (ip), vehicle: carboxymethylcellulose (CMC) 101 % of control

COc1cccc(N2C(=O)CC(=P(c3ccccc3)(c3ccccc3)c3ccccc3)C2=O)c1
inactive: dose: 75.0 mg/kg/injection, schedule: Q01DX001 (ip), vehicle: saline 96 % of control | dose: 150.0 mg/kg/injection, schedule: Q01DX001 (ip), vehicle: saline 95 % of control

N#Cc1ccc(N2CCCc3ccccc32)c([N+](=O)[O-])c1
inactive: dose: 100.0 mg/kg/injection, schedule: Q04DX003 (ip), vehicle: Klucel (hydroxypropylcellulose) (HPC) 107 % of control | dose: 200.0 mg/kg/injection, schedule: Q04DX003 (ip), vehicle: Klucel (hydroxypropylcellulose) (HPC) 92 % of control | dose: 400.0 mg/kg/injection, schedule: Q04DX003 (ip), vehicle: Klucel (hydroxypropylcellulose) (HPC) 91 % of control

From PubChem BioAssay AID248 (DTP/NCI, 2004)
